Patent US20140323506A1, “COMBINATION” (GlaxoSmithKline Intellectual Property Development Limited, priority 2010, published 2014)

How the values were obtained:
Assay type in all cases: in vivo, CD-1 nude mice
[1] = Body weight of nude mice bearing A375P F11s xenografts during treatment
Procedure: (§1) Female CD-1 nude mice of 6-8 weeks in age were used in these studies; all mice were obtained from Charles River Laboratories (Wilmington, Del.). Animals were housed in pathogen free conditions and handled with aseptic technique.
(§2) Mice with similar sized tumors (100-300 mm^3) were identified. The length and width of the tumors were measured by handheld calipers and body weights of the mice were measured using a bench top weighing scale. Tumor volumes were calculated based on the following formula: tumor volume=(Length×Width^2)/2. Mice were block randomized into the required number of dosing groups (n=8 mice/group). The randomization process ensured that the average tumor volume for each dosing group was approximately equal at the beginning of the study and mice with differing tumor volumes were evenly distributed. Mice were placed in groups of eight accordingly and dosed with either vehicle or compound for 36 days either once or twice daily, as summarised in the table below. Mice were weighed and tumors measured twice weekly for the duration of the study using Studylog animal study management software (Studylog Systems, Inc., South San Francisco, Calif., USA).

[2] = system: A375P F11s tumor xenografts; test: A375P F11s tumor xenograft efficacy in nude mice
Procedure: as §1
The A375P F11s cell line, encoding a mutation for BRAF^V600E, was subcloned from the A375P human melanoma cell line (obtained from ATCC, Cat # CRL-1619).
The A375P F11s cell lines were grown in RPMI growth medium supplemented with 10% fetal bovine serum (FBS), 1% sodium pyruvate and 1% penicillin-streptomycin in a humidified 37° C. chamber with 5% CO2. Cells were expanded to obtain the large numbers of cells required for each injection; cells were grown in log phase, without reaching confluency and passaged regularly.
A375P F11s cells were harvested from culture flasks by exposure to 0.25% trypsin/EDTA for 5 min at 37° C. Detached cells were collected, centrifuged (1500 rpm, 5 min, 4° C.) and rinsed to remove the trypsin solution. Cells were re-suspended in PBS without magnesium or calcium and counted. Cells were spun as described previously to remove PBS and a single cell suspension was created in 50% Matrigel: 50% PBS (v:v) so that a 100 μL subcutaneous injection would deliver 1.75 million cells per mouse.
Compounds were administered in vehicles as described below.
as §2
Tumor volumes were calculated based on the following formula: tumor volume=(Length×Width^2)/2. Tumor growth curves were created from the mean±standard error of the mean, with n=8 animals per group. The percentage of tumor growth inhibition was calculated on the final day of dosing using the following formula: 1—(tumor volume in drug-treated population/tumor volume in vehicle-treated control population).

[3] = system: A375P F11s tumor xenografts; test: A375P F11s tumor xenograft efficacy in nude mice; remark: listed apart in the source
[4] = Group 3: Compound B 0.1 mg/kg PO QD, study day 0
[5] = Group 3: Compound B 0.1 mg/kg PO QD, study day 3
[6] = Group 3: Compound B 0.1 mg/kg PO QD, study day 7
[7] = Group 3: Compound B 0.1 mg/kg PO QD, study day 9
[8] = Group 3: Compound B 0.1 mg/kg PO QD, study day 15
[9] = Group 3: Compound B 0.1 mg/kg PO QD, study day 18
[10] = Group 3: Compound B 0.1 mg/kg PO QD, study day 22
[11] = Group 3: Compound B 0.1 mg/kg PO QD, study day 25
[12] = Group 3: Compound B 0.1 mg/kg PO QD, study day 28
[13] = Group 6: Compound B 0.3 mg/kg PO QD, study day 0
[14] = Group 6: Compound B 0.3 mg/kg PO QD, study day 3
[15] = Group 6: Compound B 0.3 mg/kg PO QD, study day 7
[16] = Group 6: Compound B 0.3 mg/kg PO QD, study day 9
[17] = Group 6: Compound B 0.3 mg/kg PO QD, study day 15
[18] = Group 6: Compound B 0.3 mg/kg PO QD, study day 18
[19] = Group 6: Compound B 0.3 mg/kg PO QD, study day 22
[20] = Group 6: Compound B 0.3 mg/kg PO QD, study day 25
[21] = Group 6: Compound B 0.3 mg/kg PO QD, study day 28
[22] = Group 6: Compound B 0.3 mg/kg PO QD, study day 31
[23] = Group 6: Compound B 0.3 mg/kg PO QD, study day 35
[24] = Group 6: Compound B 0.3 mg/kg PO QD, study day 37

Cc1ccc(Nc2nccc(N(C)c3ccc4c(C)n(C)nc4c3)n2)cc1S(N)(=O)=O [Compound A, 5-[[4-[(2,3-dimethyl-2H-indazol-6-yl)methylamino]-2-pyrimidinyl]amino]-2-methylbenzenesulfonamide, reference compound]
Mean body weight ([1]; Group 2: Compound A 100 mg/kg PO BID, study day 0): 24.98 g | Mean body weight ([1]; Group 2: Compound A 100 mg/kg PO BID, study day 3): 25.13 g | Mean body weight ([1]; Group 2: Compound A 100 mg/kg PO BID, study day 7): 25.63 g | Mean body weight ([1]; Group 2: Compound A 100 mg/kg PO BID, study day 9): 25.29 g | Mean body weight ([1]; Group 2: Compound A 100 mg/kg PO BID, study day 15): 24.83 g | Mean body weight ([1]; Group 2: Compound A 100 mg/kg PO BID, study day 18): 25.35 g | Mean body weight ([1]; Group 2: Compound A 100 mg/kg PO BID, study day 22): 24.71 g | Mean body weight ([1]; Group 2: Compound A 100 mg/kg PO BID, study day 25): 24.79 g | Mean body weight ([1]; Group 2: Compound A 100 mg/kg PO BID, study day 28): 24.91 g | Mean body weight ([1]; Group 2: Compound A 100 mg/kg PO BID, study day 31): 25.33 g | Mean body weight ([1]; Group 2: Compound A 100 mg/kg PO BID, study day 35): 24.95 g | Mean body weight ([1]; Group 2: Compound A 100 mg/kg PO BID, study day 37): 25.00 g

CC(=O)Nc1cccc(-n2c(=O)n(C3CC3)c(=O)c3c(Nc4ccc(I)cc4F)n(C)c(=O)c(C)c32)c1 [Compound B, N-{3-[3-cyclopropyl-5-(2-fluoro-4-iodo-phenylamino)-6,8-dimethy-2,4,7-trioxo-3,4,6,7-tetrahydro-2H-pyrido[4,3-d]pyrimidin-1-yl]phenyl}acetamide]
smaller tumors compared to vehicle control ([2]; Compound B 0.3 mg/kg QD): 70.4% | tumor volume course under extended treatment ([2]; Compound B alone 0.3 mg/kg, treatment continued until day 37): tumor volume started to increase even under continued drug treatment | Mean tumor volume [2, 4]: 199.3 mm^3 | Percent inhibition of tumor volume compared to vehicle treated mice [2, 4]: −15.70% | Mean tumor volume [2, 5]: 260.5 mm^3 | Mean tumor volume [2, 6]: 300.8 mm^3 | Percent inhibition of tumor volume compared to vehicle treated mice [2, 6]: 3.1% | Mean tumor volume [2, 7]: 335.1 mm^3 | Percent inhibition of tumor volume compared to vehicle treated mice [2, 7]: 14.2% | Mean tumor volume [2, 8]: 459.3 mm^3 | Percent inhibition of tumor volume compared to vehicle treated mice [2, 8]: 28.2% | Mean tumor volume [2, 9]: 616.2 mm^3 | Percent inhibition of tumor volume compared to vehicle treated mice [2, 9]: 15.3% | Mean tumor volume [2, 10]: 916.9 mm^3 | Mean tumor volume [2, 11]: 1,100.3 mm^3 | Percent inhibition of tumor volume compared to vehicle treated mice [2, 11]: −1.0% | Mean tumor volume [2, 12]: 1,338.4 mm^3 | Percent inhibition of tumor volume compared to vehicle treated mice [2, 12]: −6.8% | Mean tumor volume [2, 13]: 198.8 mm^3 | Mean tumor volume [2, 14]: 205.9 mm^3 | Percent inhibition of tumor volume compared to vehicle treated mice [2, 14]: 17.7% | Mean tumor volume [2, 15]: 141.2 mm^3 | Percent inhibition of tumor volume compared to vehicle treated mice [2, 15]: 54.5% | Mean tumor volume [2, 16]: 124.4 mm^3 | Mean tumor volume [2, 17]: 115.1 mm^3 | Mean tumor volume [2, 18]: 141.4 mm^3 | Percent inhibition of tumor volume compared to vehicle treated mice [2, 18]: 80.5% | Mean tumor volume [2, 19]: 217.3 mm^3 | Mean tumor volume [2, 20]: 300.3 mm^3 | Percent inhibition of tumor volume compared to vehicle treated mice [2, 20]: 72.4% | Mean tumor volume [2, 21]: 370.6 mm^3 | Percent inhibition of tumor volume compared to vehicle treated mice [2, 21]: 70.4% | Mean tumor volume [2, 22]: 450.5 mm^3 | Mean tumor volume [2, 23]: 529.1 mm^3 | Mean tumor volume [2, 24]: 604.4 mm^3 | Mean body weight [1, 4]: 26.30 g | Mean body weight [1, 5]: 26.00 g | Mean body weight [1, 6]: 26.24 g | Mean body weight [1, 7]: 26.23 g | Mean body weight [1, 8]: 26.09 g | Mean body weight [1, 9]: 27.09 g | Mean body weight [1, 10]: 26.73 g | Mean body weight [1, 11]: 26.80 g | Mean body weight [1, 12]: 26.93 g | Mean body weight [1, 13]: 24.59 g | Mean body weight [1, 14]: 24.10 g | Mean body weight [1, 15]: 23.89 g | Mean body weight [1, 16]: 23.93 g | Mean body weight [1, 17]: 23.94 g | Mean body weight [1, 18]: 24.41 g | Mean body weight [1, 19]: 23.83 g | Mean body weight [1, 20]: 23.95 g | Mean body weight [1, 21]: 24.18 g | Mean body weight [1, 22]: 24.49 g | Mean body weight [1, 23]: 24.54 g | Mean body weight [1, 24]: 24.64 g | Percent inhibition of tumor volume compared to vehicle treated mice [3, 5]: −4.1% | Percent inhibition of tumor volume compared to vehicle treated mice [3, 10]: 2.1% | Percent inhibition of tumor volume compared to vehicle treated mice [3, 13]: −15.41% | Percent inhibition of tumor volume compared to vehicle treated mice [3, 16]: 68.1% | Percent inhibition of tumor volume compared to vehicle treated mice [3, 17]: 82.0% | Percent inhibition of tumor volume compared to vehicle treated mice [3, 19]: 76.8%
